The test system of the assay is nude mice, LX-1 lung xenograft intrarenal, tumor weight T/C. The assay can be described thus: NCI In Vivo Anticancer Drug Screen. Data for tumor model Human Lung LX-1 Xenograft (intrarenal inoculation) in NU/NU Swiss (nude) mice. As to conditions: endpoint: mean tumor weight change, higher = larger tumour. An outline of the steps:
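Activity was scored by measuring tumors in treated animals and in vehicle controls, then reporting the treated result as a fraction of the control result.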
In general terms: A xenograft is tissue or cells of one species grown in another, often human tumour cells in immunodeficient mice.

Where [1] appears, read: dose: 6.25 mg/kg/injection, schedule: Q01DX010 (sc), vehicle: Klucel (hydroxypropylcellulose) (HPC).
Setting [2] is: dose: 12.5 mg/kg/injection, schedule: Q01DX010 (sc), vehicle: Klucel (hydroxypropylcellulose) (HPC).
Where [3] appears, read: dose: 25.0 mg/kg/injection, schedule: Q01DX010 (sc), vehicle: Klucel (hydroxypropylcellulose) (HPC).
[4] abbreviates: dose: 150.0 mg/kg/injection, schedule: Q04DX003 (sc), vehicle: saline.
[5] abbreviates: dose: 75.0 mg/kg/injection, schedule: Q04DX003 (sc), vehicle: Klucel (hydroxypropylcellulose) (HPC).
[6] abbreviates: dose: 600.0 mg/kg/injection, schedule: Q04DX003 (sc), vehicle: saline with Tween-80.
Where [7] appears, read: dose: 1200.0 mg/kg/injection, schedule: Q04DX003 (sc), vehicle: saline with Tween-80.
The mark [8] stands for this setting: dose: 25.0 mg/kg/injection, schedule: Q01DX010 (sc), vehicle: water.
[9] abbreviates: dose: 100.0 mg/kg/injection, schedule: Q01DX010 (sc), vehicle: water.
[10] abbreviates: dose: 300.0 mg/kg/injection, schedule: Q04DX003 (sc), vehicle: Klucel (hydroxypropylcellulose) (HPC).
Setting [11] is: dose: 600.0 mg/kg/injection, schedule: Q04DX003 (sc), vehicle: Klucel (hydroxypropylcellulose) (HPC).
Setting [12] is: dose: 1200.0 mg/kg/injection, schedule: Q04DX003 (sc), vehicle: Klucel (hydroxypropylcellulose) (HPC).
Setting [13] is: dose: 2400.0 mg/kg/injection, schedule: Q04DX003 (sc), vehicle: Klucel (hydroxypropylcellulose) (HPC).
The mark [14] stands for this setting: dose: 100.0 mg/kg/injection, schedule: Q01DX010 (sc), vehicle: Klucel (hydroxypropylcellulose) (HPC).
The mark [15] stands for this setting: dose: 200.0 mg/kg/injection, schedule: Q01DX010 (sc), vehicle: Klucel (hydroxypropylcellulose) (HPC).
The mark [16] stands for this setting: dose: 400.0 mg/kg/injection, schedule: Q01DX010 (sc), vehicle: Klucel (hydroxypropylcellulose) (HPC).
[17] abbreviates: dose: 300.0 mg/kg/injection, schedule: Q04DX003 (sc), vehicle: saline with Tween-80.
The mark [18] stands for this setting: dose: 2400.0 mg/kg/injection, schedule: Q04DX003 (sc), vehicle: saline with Tween-80.
[19] abbreviates: dose: 25.0 mg/kg/injection, schedule: Q04DX003 (sc), vehicle: saline with Tween-80.

Molecules are shown by their SMILES. Several values for one entry are separate records, joined by “and”; a condition that tells them apart may be missing. Identical values can stand only once. Results filed as inconclusive are left out.

In the case of `C=C1C(=O)OCC2C(C(=O)O)=CC3C(C)C(C)=CC123` (stereo not given), the T/C by setting is: (dose: 3.13 mg/kg/injection, schedule: Q01DX010 (sc), vehicle: Klucel (hydroxypropylcellulose) (HPC)) 56 % of control; under setting [1], 109 % of control; under setting [2], 78 % of control; under setting [3], 165 % of control.
Consider `COc1cc(NCCCCCCCNC(C)C)c2nccc(C)c2c1`, for which the T/C by setting is: (dose: 37.5 mg/kg/injection, schedule: Q04DX003 (sc), vehicle: saline) 105 % of control; under setting [4], 87 % of control.
For `C/C=C/c1cc2n(c1)C(=O)c1cc(OC3OC(C)C(NC)C(C)(O)C3O)c(C)c(O)c1NC2O` (stereo not given), the T/C (dose: 50.0 micrograms/kg/injection, schedule: Q04DX003 (sc), vehicle: saline) was 54 % of control; the T/C (dose: 200.0 micrograms/kg/injection, schedule: Q04DX003 (sc), vehicle: saline) is 92 % of control; the T/C (dose: 400.0 micrograms/kg/injection, schedule: Q04DX003 (sc), vehicle: saline) is 91 % of control.
Turning to `O=c1s[se]c2ccccc12`, the T/C is, setting by setting: under setting [5], 66 % of control; (dose: 150.0 mg/kg/injection, schedule: Q04DX003 (sc), vehicle: Klucel (hydroxypropylcellulose) (HPC)) 59 % of control.
Turning to `C[C@H](N)C(=O)N[C@@H]1[C@H]2C(=C(O)C[C@@H](O)[C@@H]2O)C(=O)O[C@]1(C)C(Cl)Cl`, the T/C was 108 % of control (dose: 1.5 mg/kg/injection, schedule: Q04DX003 (sc), vehicle: Klucel (hydroxypropylcellulose) (HPC)); 107 % of control (dose: 3.0 mg/kg/injection, schedule: Q04DX003 (sc), vehicle: Klucel (hydroxypropylcellulose) (HPC)); 81 % of control (dose: 6.0 mg/kg/injection, schedule: Q04DX003 (sc), vehicle: Klucel (hydroxypropylcellulose) (HPC)).
For `CC1(C)COCN1COCCOCN1COCC1(C)C`, the T/C was 169 % of control (dose: 200.0 mg/kg/injection, schedule: Q04DX003 (sc), vehicle: saline) and 191 % of control (dose: 400.0 mg/kg/injection, schedule: Q04DX003 (sc), vehicle: saline).
Regarding `O=S(=O)(c1ccccc1)N1CN2CCN(C2)C1`, the T/C (dose: 150.0 mg/kg/injection, schedule: Q04DX003 (sc), vehicle: saline with Tween-80) is 195 % of control; the T/C under setting [6] is 106 % of control; the T/C under setting [7] is 156 % of control.
For `CC(/C=N/N=C(N)N)=N\N=C(N)N`, the T/C runs as follows: (dose: 12.5 mg/kg/injection, schedule: Q01DX010 (sc), vehicle: water) 81 % of control; under setting [8], 78 % of control; under setting [9], 58 % of control.
Regarding `CSc1ncc2ncn(C3OC(CO)C(O)C3O)c2n1` (stereo not given), the T/C was 61 % of control under setting [10], 57 % of control under setting [11], 56 % of control under setting [12] and 53 % of control under setting [13].
For `ClCCCCCCCCCCc1ccccc1`, the T/C reads like this: under setting [14], 260 % of control; under setting [15], 94 % of control; under setting [16], 71 % of control; (dose: 800.0 mg/kg/injection, schedule: Q01DX010 (sc), vehicle: Klucel (hydroxypropylcellulose) (HPC)) 52 % of control.
Take `CS(=O)(=O)OCCN(CCOS(C)(=O)=O)c1ccc(C=Nc2ccc(-c3csc(COc4ccccc4)n3)cc2)cc1`: the T/C under setting [2] is 52 % of control, the T/C under setting [3] was 70 % of control and the T/C under setting [14] is 106 % of control.
For `C=CS(C=C)=NS(=O)(=O)c1ccc(C)cc1`, the T/C was 108 % of control (dose: 18.75 mg/kg/injection, schedule: Q04DX003 (sc), vehicle: Klucel (hydroxypropylcellulose) (HPC)); 163 % of control (dose: 37.5 mg/kg/injection, schedule: Q04DX003 (sc), vehicle: Klucel (hydroxypropylcellulose) (HPC)); 71 % of control under setting [5].
For `COc1cccc2c1C(=O)c1c(O)c3c(c(O)c1C2=O)CC(O)(C(=O)CO)CC3OC1CC(N)C(O)C(C)O1` (stereo not given), the T/C is 71 % of control (dose: 12.0 mg/kg/injection, schedule: Q01DX010 (sc), vehicle: saline); 24 % of control (dose: 24.0 mg/kg/injection, schedule: Q01DX010 (sc), vehicle: saline); 71 % of control under setting [8]; 82 % of control (dose: 37.5 mg/kg/injection, schedule: Q04DX003 (sc), vehicle: water); 31 % of control (dose: 48.0 mg/kg/injection, schedule: Q01DX010 (sc), vehicle: saline); 71 % of control (dose: 50.0 mg/kg/injection, schedule: Q01DX010 (sc), vehicle: water). Also, the T/C reads like this: (dose: 75.0 mg/kg/injection, schedule: Q04DX003 (sc), vehicle: water) 105 % of control; under setting [9], 39 % of control; (dose: 150.0 mg/kg/injection, schedule: Q04DX003 (sc), vehicle: water) 193 % of control; (dose: 200.0 mg/kg/injection, schedule: Q01DX010 (sc), vehicle: water) 11 % of control; (dose: 300.0 mg/kg/injection, schedule: Q04DX003 (sc), vehicle: water) 46 % of control.
`O=C(NC1CCCCC1)OCc1c(COC(=O)NC2CCCCC2)c(-c2ccc(Cl)c(Cl)c2)n2c1CCC2`: the T/C by setting is: under setting [17], 88 % of control; under setting [6], 94 % of control; under setting [7], 104 % of control; under setting [18], 104 % of control.
Consider `O=C(Nc1cccc2c(OC(=O)C(Cl)Cl)c(N=Nc3ccc(S(=O)(=O)Nc4nccs4)cc3)cc(N=Nc3ccc(S(=O)(=O)Nc4nccs4)cc3)c12)C(Cl)Cl` (tested in a mixture with another compound), for which the T/C was 104 % of control under setting [19]; 92 % of control (dose: 50.0 mg/kg/injection, schedule: Q04DX003 (sc), vehicle: saline with Tween-80); 116 % of control (dose: 100.0 mg/kg/injection, schedule: Q04DX003 (sc), vehicle: saline with Tween-80); 90 % of control under setting [17]; 120 % of control under setting [6]; 83 % of control under setting [7]. The T/C under setting [18] was 120 % of control.
Take `C1CCC2[N-]CC3CCCCC3[N-]CC3CCCCC3[N-]CC3CCCCC3[N-]CC2C1.[Cu]` (stereo not given): the T/C was 100 % of control under setting [1], 87 % of control under setting [2] and 51 % of control under setting [3].
Consider `C=C(NC(=O)C(=C)NC(=O)c1csc(C2=NC3c4csc(n4)C4NC(=O)c5csc(n5)C(C(C)(O)C(C)O)NC(=O)C5CSC(=N5)/C(=C/C)NC(=O)C(C(C)O)NC(=O)c5csc(n5)C3(CC2)NC(=O)C(C)NC(=O)C(=C)NC(=O)C(C)NC(=O)C(C(C)CC)NC2C=Cc3c(C(C)O)cc(nc3C2O)C(=O)OC4C)n1)C(N)=O` (stereo not given), for which the T/C runs as follows: under setting [15], 90 % of control; under setting [16], 65 % of control; (dose: 1600.0 mg/kg/injection, schedule: Q01DX010 (sc), vehicle: Klucel (hydroxypropylcellulose) (HPC)) 53 % of control.
Turning to `Cc1ccc(S(=O)(=O)OCOS(=O)(=O)c2ccc(C)cc2)cc1`, the T/C is, setting by setting: under setting [10], 79 % of control; under setting [11], 95 % of control; under setting [12], 74 % of control; under setting [13], 100 % of control.
In the case of `CCSC(=O)N1c2ccc(OC)cc2C=CC1C#N` (stereo not given), the T/C under setting [18] was 32 % of control (2×) and 40 % of control; the T/C (dose: 4800.0 mg/kg/injection, schedule: Q04DX003 (sc), vehicle: saline with Tween-80) was 16 % of control and 17 % of control and 23 % of control.
Regarding `O=P1(NCCCl)OCCCN1CCCl` (stereo not given), the T/C is 93 % of control (dose: 75.0 mg/kg/injection, schedule: Q04DX003 (sc), vehicle: saline) and 109 % of control under setting [4].
On to `CC(C)(C)N1CC1CNC(=O)C(=O)NCC1CN1C(C)(C)C` (stereo not given), for which the T/C is, setting by setting: (dose: 6.25 mg/kg/injection, schedule: Q04DX003 (sc), vehicle: saline with Tween-80) 87 % of control; (dose: 12.5 mg/kg/injection, schedule: Q04DX003 (sc), vehicle: saline with Tween-80) 76 % of control; under setting [19], 70 % of control.
